Where two headings read alike, the source gives them in different places.
What was measured:
[1] = system: HSV-1 DNA replication; type: cell-based, herpes simplex virus type 1; conditions: 50 μg/ml CHX alone
[2] = system: HSV-1 strain KOS; assay: HSV-1 replication in HEL cells, standard plaque assay; type: cell-based, herpes simplex virus type 1; conditions: 24 hours, 40 μM Rosco, 75 μM iso-Olo, 20 μM Lova, 5 ng/ml staurosporine, 70 μM PD98059
[3] = system: ICP0 promoter (pWRICP0-CAT); type: cell-based, herpes simplex virus type 1; conditions: for effect on virion-induced IE gene expression: cultures treated 24 hours prior to infection; for Fold-induction of CAT activity: mock-infected, value (SEM)
[4] = system: HEL cells; assay: Cell-cycle progression by FACS analysis, HEL cells; type: cell-based
[5] = system: Vero cells; assay: Toxicity by microscopic observation, Vero cells
[6] = 3 hours pi, 100 μM Roscovitine, 10 μM Lovastatin, 250 μM K252a

Structure (SMILES)	effect on HSV replication, single-cycle growth [2]	effect on virion-induced IE gene expression [3]	Fold-induction of CAT activity [3, 6]	Fold-induction of CAT activity ([3]; 6 hours pi)	Fold-induction of CAT activity ([3]; 9 hours pi)	further results
C[C@@H]1C[C@@H]([C@H](O)CC2CC(=O)NC(=O)C2)C(=O)[C@@H](C)C1 [CHX, Cycloheximide]						fold viral DNA replication after release from PAA block ([1]; by 20 hours post release): approximately 12 fold; fold viral DNA replication after release from PAA block ([1]; first 12 hours post-release): approximately 6 fold
Cn1cnc2nc(NCCO)nc(NCc3ccccc3)c21 [Iso-Olo, IsoOlomoucine]	no detectable effect					
COC(=O)[C@@]1(O)C[C@H]2O[C@]1(C)n1c3ccccc3c3c4c(c5c6ccccc6n2c5c31)C(=O)NC4 [K252a]		no effect	0.8 (0.4) fold	1.1 (0.3) fold	1.0 (0.3) fold	
CC[C@H](C)C(=O)O[C@H]1C[C@@H](C)C=C2C=C[C@H](C)[C@H](CC[C@@H]3C[C@@H](O)CC(=O)O3)[C@H]21 [Lova, Lovastatin]	failed to block HSV replication	no effect	1.1 (0.6) fold	1.0 (0.5) fold	1.2 (0.6) fold	cells blocked in G0/G1 ([4]; 5 μM Lova): ~90%; cells arrested in G0/G1 ([4]; 20 μM Lova): about 90%
Cn1cnc2c(NCc3ccccc3)nc(NCCO)nc21 [Olo, Olomoucine]						concentration tolerated without evidence of toxicity [5]: 200 µM

Reference: patent US20030099944A1, “Combination therapy involving drugs which target cellular proteins and drugs which target pathogen-encoded proteins” (priority 1998, published 2003)
